According to patent US9980943B2, “Methods of treating muscular dystrophy” (BOARD OF REGENTS OF THE NEVADA SYSTEM OF HIGHER EDUCATION, …, priority 2013, dated 2018):

Columns and labels:
Assay type in all cases: cell-based, mouse
[1] = test system: α7 integrin (LacZ reporter in α7+/LacZ myotubes); assay: Myotube α7 integrin FDG assay (Burkin assay in myotubes, 96-well); conditions: myotubes
[2] = test system: β-galactosidase in CMV-LacZ C2C12 myotubes; assay: CMV-LacZ secondary screen in C2C12 myotubes (β-Gal stabilizing assay); conditions: for CMV-LACZ in Myotubes, signal relative to DMSO: C2C12 CMV-LacZ myotubes, fold relative to DMSO; for CMV-LACZ in Myotubes (β-galactosidase activity relative to DMSO): CMV-LacZ C2C12 myotubes, 96-well format
Procedure, shortened: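 β-Gal level was the read-out, measured in a clonal C2C12 line expressing LacZ from a CMV promoter. Dose-response curves used six concentrations, 0.5 μM up to 40 μM, with duplicate points.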

[3] = test system: α7 integrin (LacZ reporter in α7βgal+/− myoblasts); assay: Myoblast α7+/LacZ integrin FDG assay (Burkin assay in myoblasts, 96-well); conditions: α7+/LacZ myoblasts, 96-well

SMILES | Burkin Assay in Myotubes (signal relative to DMSO) ([1]; 0.5 uM) | Burkin Assay in Myotubes (signal relative to DMSO) ([1]; 1 uM) | Burkin Assay in Myotubes (signal relative to DMSO) ([1]; 5 uM) | Burkin Assay in Myotubes (signal relative to DMSO) ([1]; 10 uM) | Burkin Assay in Myotubes (signal relative to DMSO) ([1]; 20 uM) | Burkin Assay in Myotubes (signal relative to DMSO) ([1]; 40 uM) | CMV-LACZ in Myotubes, signal relative to DMSO ([2]; 5 uM) | CMV-LACZ in Myotubes, signal relative to DMSO ([2]; 10 uM) | CMV-LACZ in Myotubes, signal relative to DMSO ([2]; 20 uM) | CMV-LACZ in Myotubes, signal relative to DMSO ([2]; 40 uM) | Burkin Assay in Myoblasts, value relative to DMSO ([3]; 0.5 uM) | Burkin Assay in Myoblasts, value relative to DMSO ([3]; 1 uM) | Burkin Assay in Myoblasts, value relative to DMSO ([3]; 5 uM) | Burkin Assay in Myoblasts, value relative to DMSO ([3]; 10 uM) | Burkin Assay in Myoblasts, value relative to DMSO ([3]; 20 uM) | Burkin Assay in Myoblasts, value relative to DMSO ([3]; 40 uM) | CMV-LACZ in Myotubes (β-galactosidase activity relative to DMSO) ([2]; 5 uM) | CMV-LACZ in Myotubes (β-galactosidase activity relative to DMSO) ([2]; 10 uM) | CMV-LACZ in Myotubes (β-galactosidase activity relative to DMSO) ([2]; 20 uM) | CMV-LACZ in Myotubes (β-galactosidase activity relative to DMSO) ([2]; 40 uM) | other results
CNC(=S)N1CCC(NC(=O)C(Cc2ccc(F)cc2)NC(C)=O)CC1 (stereo not shown) [MLS000710130-01] | 0.9811 | 0.8524 | 0.6183 | 0.6452 | 1.044 | 1.064 | 0.8144 | 0.8646 | 0.9864 | 0.9336 | 0.9666 | 1.103 | 1.006 | 1.036 | 0.8326 | 0.8689 |  |  |  |  | 
O=C(NCCCn1ccnc1)/C(=C/c1cccs1)NC(=O)c1ccco1 [MLS000712769-01] | 0.9746 | 0.8428 | 1.2524 | 0.9038 | 0.9219 | 0.9817 | 0.9651 | 1.071 | 0.9141 | 0.8582 | 1.055 | 1.059 | 0.9476 | 0.9286 | 0.7697 | 0.7893 |  |  |  |  | 
CS(=O)(=O)N(Cc1ccc(C(=O)NC2CCCC2)cc1)c1ccccc1 [MLS000714175-01] | 1.086 | 1.061 | 1.131 | 1.013 | 1.119 | 1.022 |  |  |  |  | 0.5383 | 0.975 | 1.1625 | 1.06 | 0.9936 | 0.9626 | 0.9319 | 1.097 | 1.124 | 0.971 | 
COCCN1C=C(C(=O)OC)C(c2ccccc2Cl)C(C(=O)OC)=C1 [MLS000718886-01] | 0.9819 | 0.9591 | 1.068 | 0.9981 | 0.938 | 0.9785 |  |  |  |  | 1.052 | 0.9394 | 1.087 | 0.9661 | 0.9124 | 0.8139 | 0.9787 | 0.9804 | 0.8798 | 0.8355 | 
C/C(=N/OC(=O)CC(C)C)c1cc(-c2ccc(Cl)cc2)no1 [MLS000721030-01] | 0.9757 | 1.051 | 1.121 | 1.2344 | 1.1412 | 1.205 |  |  |  |  | 0.9673 | 0.9348 | 1.027 | 1.166 | 1.025 | 1.122 | 1.111 | 0.9655 | 0.9276 | 0.7917 | 
COC(=O)Cc1c(O)ccn(Cc2ccc3c(c2)OCO3)c1=O [MLS000721525-01] | 0.6646 | 0.9136 | 0.6693 | 0.9806 | 0.8968 | 1.047 | 0.866 | 1.036 | 0.8409 | 0.9127 | 1.086 | 1.086 | 0.9834 | 1.01 | 0.9936 | 0.985 |  |  |  |  | 
N#Cc1ccc(OCC(O)CS(=O)(=O)c2ccccc2)cc1 (stereo not shown) [MLS000721584-01] |  |  |  |  |  |  | 0.9573 | 0.9071 | 1.133 | 1.1019 |  |  |  |  |  |  |  |  |  |  | Burkin Assay in Myotubes, α7 integrin LacZ reporter signal relative to DMSO ([1]; 0.5 uM): 0.9148; Burkin Assay in Myotubes, α7 integrin LacZ reporter signal relative to DMSO ([1]; 1 uM): 0.9833; Burkin Assay in Myotubes, α7 integrin LacZ reporter signal relative to DMSO ([1]; 5 uM): 0.8802; Burkin Assay in Myotubes, α7 integrin LacZ reporter signal relative to DMSO ([1]; 10 uM): 0.8867; Burkin Assay in Myotubes, α7 integrin LacZ reporter signal relative to DMSO ([1]; 20 uM): 0.9155; Burkin Assay in Myotubes, α7 integrin LacZ reporter signal relative to DMSO ([1]; 40 uM): 0.9927; Burkin Assay in Myoblasts, signal relative to DMSO ([3]; 0.5 uM): 0.933; Burkin Assay in Myoblasts, signal relative to DMSO ([3]; 1 uM): 0.8525; Burkin Assay in Myoblasts, signal relative to DMSO ([3]; 5 uM): 1.03; Burkin Assay in Myoblasts, signal relative to DMSO ([3]; 10 uM): 0.9846; Burkin Assay in Myoblasts, signal relative to DMSO ([3]; 20 uM): 0.8663; Burkin Assay in Myoblasts, signal relative to DMSO ([3]; 40 uM): 0.7628
O=Cc1cnc(N2CCCCC2)s1 [MLS000721730-01] | 0.9195 | 1.064 | 0.8563 | 1.025 | 0.877 | 1.071 |  |  |  |  | 0.8377 | 0.8197 | 0.8157 | 0.8824 | 0.827 | 0.9342 | 0.8504 | 0.9207 | 0.9311 | 1.031 | 
O=S(=O)(NCC(c1ccco1)N1CCOCC1)c1ccc(Cl)cc1 (stereo not shown) [MLS000724709-01] | 0.9961 | 1.467 | 1.04 | 1.002 | 0.885 | 0.9768 |  |  |  |  | 0.9899 | 0.9554 | 0.7389 | 0.779 | 0.486 | 0.5536 | 0.8422 | 0.8828 | 1.054 | 1.125 | 
CC(C)N(CCO)C(=O)CCc1nnc(CCCc2ccccc2)o1 [MLS000733703-01] | 1.063 | 1.128 | 0.8779 | 1.147 | 0.9957 | 0.894 | 1.1188 | 0.8654 | 0.9583 | 0.7965 | 0.988 | 0.9592 | 0.8919 | 0.8734 | 0.8635 | 0.8463 |  |  |  |  | 
